Measurements: patent US5550139A, “Serine protease inhibitors” (The Wichita State University, priority 1994, dated 1996)
Where “and” joins values, the source holds several entries; their conditions need not be identical. Equal values may be shown once.

Legend:
Proteinase-3 = molecular target: T1, Proteinase-3 (Homo sapiens, UniProt P24158); assay: Proteinase-3 inhibition; type: biochemical; set-up: % Proteinase-3 Inhibition: concentration or dose not given beside the values; settings: Table 7
T1 sequence (P24158 28-248 limits assumed): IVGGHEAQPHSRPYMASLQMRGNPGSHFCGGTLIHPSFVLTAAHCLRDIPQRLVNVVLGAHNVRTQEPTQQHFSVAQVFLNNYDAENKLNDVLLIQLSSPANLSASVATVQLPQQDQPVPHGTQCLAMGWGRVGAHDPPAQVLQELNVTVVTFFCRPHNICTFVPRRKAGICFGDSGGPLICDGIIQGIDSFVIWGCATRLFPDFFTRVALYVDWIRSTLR
Text: (§1) An in vitro assay can be used to screen compounds of the invention for the ability to reduce or inhibit serine proteinase activity. The human leukocyte elastase (HLE), cathepsin G (Cath G), and proteinase-3 assays have each been described (Groutas et al., J. Med. Chem. 32:1607-1611, 1989; Groutas et al., Arch. Biochem. Biophys. 294:144-146, 1992; Kao et al., J. Clin. Invest. 82:1963-1973, 1988, each incorporated by reference herein). The pseudo first-order inactivation rate constants (kobs) were obtained from plots of ln(vt /vo) vs t, and expressed in terms of the apparent second-order inactivation rate constant, kobs /[I] M^-1 s^-1 (Tables 1-7). Tables 1-7 disclose the activity of preferred compounds of the invention as inhibitors of HLE and Cath G. Table 7 discloses the activity of Compounds 4A (C) and 3E (D) as inhibitors of Proteinase-3 activity. Compounds (A) and (B) have been disclosed previously (Groutas et al., Bioorganic and Med. Chem. 1(4):273-277, 1993; Groutas et al., J. Med. Chem. 36:3178, 1993).

[1] = system: neutrophil diapedesis (peritonitis); assay: Inhibition of neutrophil diapedesis after experimentally induced (starch) peritonitis; type: in vivo, rat; settings: 8 mg/kg i.v. single dose; for Total Number of Cells Lavaged at 4 Hours, Lymphocytes / Total Number of Cells Lavaged at 4 Hours, Macrophages Monocytes / Total Number of Cells Lavaged at 4 Hours, Neutrophils / Total Number of Cells Lavaged at 4 Hours, Total Cells / Abdominal Lavage Cell Distribution, Lymphocytes / Abdominal Lavage Cell Distribution, Macrophages Monocytes / Abdominal Lavage Cell Distribution, Neutrophils: starch; for Abdominal Lavage Cell Distribution, Lymphocytes / Abdominal Lavage Cell Distribution, Macrophages Monocytes / Abdominal Lavage Cell Distribution, Neutrophils: 4 hours
Experimental: (§2) Each compound (A-D) was individually injected into the tail vein of a rat in a single dose (8 mg/kg). After injection, peritonitis was induced in the rat by an IP (intraperitoneal) injection of 1 ml of a 0.1% soluble starch solution. After 4 hours, the peritoneal cavity was lavaged with saline in order to determine the number and type of cells responding to peritonitis. Cell numbers were determined by a Coulter counter and cell type (e.g. lymphocytes, neutrophils, macrophages and monocytes) by standard Cytospin and Giemsa staining. Cell number and type was evaluated after IP injection of saline (negative control, no inflammation), starch (positive control, inflammation) or starch with IV injection of an inhibitor (experimental, inflammation). Inhibitors were dissolved in DMSO prior to administration.

[2] = molecular target: T2, human leukocyte elastase (HLE) (Homo sapiens, UniProt P08246); assay: Inactivation of human leukocyte elastase (kobs/[I]); type: biochemical; settings: for HLE % inhibition: Table 1B footnote, [I]/[E] ratio of 200, 10 minute incubation period
T2 construct: purchased Elastin Products Co., Owensville, Mo
T2 sequence (P08246 30-247 limits assumed): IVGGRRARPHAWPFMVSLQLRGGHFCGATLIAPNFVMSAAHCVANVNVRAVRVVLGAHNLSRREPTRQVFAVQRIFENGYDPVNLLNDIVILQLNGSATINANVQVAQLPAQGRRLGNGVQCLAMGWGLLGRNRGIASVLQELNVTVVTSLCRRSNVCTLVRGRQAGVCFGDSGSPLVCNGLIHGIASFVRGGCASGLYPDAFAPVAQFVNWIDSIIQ
Text: as §1
XII. Materials: Human leukocyte elastase was purchased from Elastin Products Co., Owensville, Mo.
(§3) Human leukocyte cathepsin G was obtained from Athens Research and Technology, Athens, Ga. Methoxysuccinyl Ala-Ala-Pro-Val p-nitroanilide and methoxysuccinyl Ala-Ala-Pro-Phe p-nitroanilide were purchased from Sigma Chemicals Co., St. Louis, Mo. Baker-analyzed 60-200 mesh silica gel was used for flash chromatography.

rat = assay: Overt toxicity in injected rats; type: in vivo
Experimental: (§4) Inhibitor A or B were each injected twice daily into the tail vein of a rat (8 mg/kg) over a period of three days. Inflammation was not induced in these rats. […] WBC=white blood cells; PMN=polymorphonuclear leukocytes; The elastase assay has been disclosed above.
as §2

cathepsin G (Cath G) = molecular target: T3, cathepsin G (Cath G) (Homo sapiens, UniProt P08311); assay: Inactivation of human leukocyte cathepsin G (kobs/[I]); type: biochemical; settings: for kinact/KI: pH 7.5
T3 construct: purchased Athens Research and Technology, Athens, Ga
T3 sequence (P08311 21-244 limits assumed): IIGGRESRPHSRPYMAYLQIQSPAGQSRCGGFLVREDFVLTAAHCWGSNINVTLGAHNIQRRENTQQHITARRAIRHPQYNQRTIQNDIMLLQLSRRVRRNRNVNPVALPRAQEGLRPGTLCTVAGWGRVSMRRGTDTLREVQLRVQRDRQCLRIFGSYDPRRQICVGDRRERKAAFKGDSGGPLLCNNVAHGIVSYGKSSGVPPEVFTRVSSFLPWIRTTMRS
Experimental: Human leukocyte cathepsin G (1.33 uM) is incubated with compound 8 (133 uM) (a) or compound 10 (13.3 uM) (b) in 0.1M HEPES buffer, pH 7.5, and 10% DMSO. Aliquots were withdrawn at different time intervals and assayed for enzymatic activity using methoxysuccinyl Ala-Ala-Pro-Phe p-nitroanilide.
Human leukocyte cathepsin G (1.48 μM was incubated with inhibitor 5A (1.48 μM in 0.1M HEPES buffer, pH 7.5, and 1% DMSO. Aliquots were withdrawn at different time intervals and assayed for enzymatic activity using methoxysuccinyl Ala-Ala-Pro-Phe p-nitroanilide.
as §1, §3

neutrophil elastase = assay: Elastase activity and cell number in peripheral blood neutrophils after administration to rats; type: in vivo; settings: rat, 8 mg/kg twice daily i.v. for three days
Experimental: as §4

[3] = system: peripheral blood neutrophils and lymphocytes; assay: Peripheral blood cell distribution after administration to rats without inflammation; type: in vivo; settings: rat, 8 mg/kg twice daily for three days
Experimental: Compound A or Compound B were each administered twice daily for three days at a dose of 8 mg/kg. Inflammation was not induced in these rats. […] However, substitution of the aspirin moiety with a fluorine atom, as found in Compound B, prevents an increase in neutrophil cell number.

[4] = peripheral blood neutrophils, per animal, 8 mg/kg
[5] = no inflammation, per animal, 8 mg/kg

## O=C(CSc1ccccc1)OCN1C(=O)c2ccccc2S1(=O)=O
Proteinase-3
  % Proteinase-3 Inhibition: 66%

## CC(C)C[C@H]1C(=O)N(CS(=O)(=O)c2ccccc2)S(=O)(=O)N1C [Compound 3E]
[1]; Experiment 2
  Total Number of Cells Lavaged at 4 Hours, Lymphocytes: 6.4 × 10^6
  Total Number of Cells Lavaged at 4 Hours, Macrophages Monocytes: 7.7 × 10^6
  Total Number of Cells Lavaged at 4 Hours, Neutrophils: 17.9 × 10^6
  Total Number of Cells Lavaged at 4 Hours, Total Cells: 32 × 10^6
  Abdominal Lavage Cell Distribution, Lymphocytes: 20%
  Abdominal Lavage Cell Distribution, Macrophages Monocytes: 24%
  Abdominal Lavage Cell Distribution, Neutrophils: 56%
[1]; rat
  effect on neutrophil diapedesis (in words): substantially reduced neutrophil diapedesis
[2]
  inhibition of elastase (in words): an elastase inhibitor
[2]; Table 6
  kinact/KI: 7580 M⁻¹ s⁻¹
rat; rat peritonitis test, 8 mg/kg i.v. single dose
  toxicity (in words): non-toxic

## CC(C)(C)OC(=O)CN1[C@@H](Cc2ccccc2)C(=O)N(CF)S1(=O)=O [Compound 4A, (S)-4-Benzyl-5(tert-butoxycarbonylmethyl)-2-fluoromethyl-3-oxo-1,2,5-thiadiazolidine 1.1-dioxide]
[1]; Experiment 2
  Total Number of Cells Lavaged at 4 Hours, Lymphocytes: 6.5 × 10^6
  Total Number of Cells Lavaged at 4 Hours, Macrophages Monocytes: 6.5 × 10^6
  Total Number of Cells Lavaged at 4 Hours, Neutrophils: 41.0 × 10^6
  Total Number of Cells Lavaged at 4 Hours, Total Cells: 54 × 10^6
  Abdominal Lavage Cell Distribution, Lymphocytes: 12%
  Abdominal Lavage Cell Distribution, Macrophages Monocytes: 12%
  Abdominal Lavage Cell Distribution, Neutrophils: 76%
[1]; rat
  effect on neutrophil diapedesis (in words): did not inhibit neutrophil diapedesis associated with peritonitis
[2]; Table 2
  kinact/KI: 490 M⁻¹ s⁻¹
Cathepsin G (Cath G)
  inhibition of Cath G (in words): an inhibitor of Cath G

## C=C(N1C(=O)C(Cc2ccccc2)CS1(=O)=O)S(=O)(=O)c1ccccc1 (stereo not drawn) [Compound 9, 4-Benzyl-2-(1-phenylsulfonylvinyl)isothiazolidin-3-one 1,1-dioxide]
[2]
  HLE % inhibition: 20%
Cathepsin G (Cath G); Table 1B
  kinact/KI: 340 M⁻¹ s⁻¹

## C[C@@H](NC(=O)OCc1ccccc1)C(=O)OCN1C(=O)C(Cc2ccccc2)CS1(=O)=O (stereo partly drawn) [Compound 9B]
[2]; Table 3
  kinact/KI: 300 M⁻¹ s⁻¹
Cathepsin G (Cath G); Table 3
  kinact/KI: 1820 M⁻¹ s⁻¹

## O=C1C(Cc2ccccc2)CS(=O)(=O)N1CS(=O)(=O)c1ccccc1 (stereo not drawn) [Compound 10, 4-Benzyl-2-(1-phenylsulfonylmethyl)isothiazolidin-3-one 1,1-dioxide]
[2]
  HLE % inhibition: 12%
Cathepsin G (Cath G); FIG. 5, Cath G 1.33 uM, inhibitor 13.3 uM, 0.1M HEPES pH 7.5, 10% DMSO
  time-dependent loss of serine protease activity: time-dependent loss of serine protease activity
Cathepsin G (Cath G); Table 1B
  kinact/KI: 960 M⁻¹ s⁻¹

## C[C@@H](NC(=O)OC(C)(C)C)C(=O)OCN1C(=O)C(Cc2ccccc2)CS1(=O)=O (stereo partly drawn) [Compound 10B]
[2]; Table 3
  kinact/KI: 310 M⁻¹ s⁻¹
Cathepsin G (Cath G); Table 3
  kinact/KI: 560 M⁻¹ s⁻¹

## O=C(CNC(=O)OCc1ccccc1)OCN1C(=O)C(Cc2ccccc2)CS1(=O)=O (stereo not drawn) [Compound 11B]
[2]; Table 3
  kinact/KI: 220 M⁻¹ s⁻¹
Cathepsin G (Cath G); Table 3
  kinact/KI: 2680 M⁻¹ s⁻¹

## CC(=O)Oc1ccccc1C(=O)OCN1C(=O)c2ccccc2S1(=O)=O [Drug A]
[1]; Experiment 1
  Total Number of Cells Lavaged at 4 Hours, Lymphocytes: 7.0 × 10^6
  Total Number of Cells Lavaged at 4 Hours, Macrophages Monocytes: 7.6 × 10^6
  Total Number of Cells Lavaged at 4 Hours, Neutrophils: 11.0 × 10^6
  Total Number of Cells Lavaged at 4 Hours, Total Cells: 25 × 10^6
  Abdominal Lavage Cell Distribution, Lymphocytes: 28%
  Abdominal Lavage Cell Distribution, Macrophages Monocytes: 38%
  Abdominal Lavage Cell Distribution, Neutrophils: 44%
[1]; rat
  reduction of peritonitis induced neutrophil diapedesis: more than 50%
Neutrophil elastase; [4]
  Elastase Activity: 0.55 ΔOD/min/ml and 0.70 ΔOD/min/ml
  Elastase Activity Rate/10^6 PMN: 0.014 and 0.015
Neutrophil elastase
  entry into neutrophils in vivo (in words): do not enter neutrophils in vivo
  inactivation of neutrophil intracellular proteinase (in words): fails to inactivate neutrophil intracellular proteinase
Neutrophil elastase; per animal, 8 mg/kg
  PMN: 41.4 × 10^6 and 45.7 × 10^6
  Total WBC: 46.0 × 10^6 and 55.0 × 10^6
Neutrophil elastase; vs vehicle
  effect on elastase activity in circulating neutrophils (in words): did not reduce elastase activity in circulating neutrophils
[3]
  morphology of circulating cells (in words): most of the circulating cells are morphologically mature
[3]; [5]
  Peripheral Blood Cell Distribution, Lymphocytes: 10% and 17%
  Peripheral Blood Cell Distribution, Neutrophils: 90% and 83%
[3]; no inflammation, vs vehicle
  effect on number of neutrophils in peripheral circulation (in words): caused an increase in the number of neutrophils into the peripheral circulation
rat; rat, 8 mg/kg twice daily i.v. for three days
  overt signs of toxicity: no overt signs of toxicity

## CC(C)CC1C(=O)N(CS(=O)(=O)c2ccccc2)S(=O)(=O)N1Cc1ccccc1 (stereo not drawn) [drawing 92 R = benzyl]
Proteinase-3
  % Proteinase-3 Inhibition: 86%

## CC(C)CC1C(=O)N(CS(=O)(=O)c2ccccc2)S(=O)(=O)N1C (stereo not drawn) [drawing 92 R = methyl]
Proteinase-3
  % Proteinase-3 Inhibition: 84%

## CC(C)(C)OC(=O)CN1[C@@H](Cc2ccccc2)C(=O)N(CF)S1(=O)=O [drawing 93 R = CH2 COOt-BOC]
Proteinase-3
  % Proteinase-3 Inhibition: 33%

## O=C1C(Cc2ccccc2)N(Cc2ccccc2)S(=O)(=O)N1CF (stereo not drawn) [drawing 93 R = benzyl]
Proteinase-3
  % Proteinase-3 Inhibition: 43%

## CN1C(Cc2ccccc2)C(=O)N(CF)S1(=O)=O (stereo not drawn) [drawing 93 R = methyl]
Proteinase-3
  % Proteinase-3 Inhibition: 55%

## O=C1c2ccccc2S(=O)(=O)N1CF [drawing 94]
Proteinase-3
  % Proteinase-3 Inhibition: 79%

## O=C1C(Cc2ccccc2)CS(=O)(=O)N1CF (stereo not drawn) [drawing 96]
Proteinase-3
  Proteinase-3 Inhibition (in words): inactive
